Data: patent US7838025B2, “Products and methods for maintaining or increasing ceramide levels in skin” (Kimberly-Clark Worldwide, Inc., priority 2002, dated 2010)

Key:
sphingomyelinase = target: T1, sphingomyelinase (Bacillus cereus, UniProt P11889); test: SAST Sphingomyelinase Activity Screening Test; assay type: biochemical; conditions: test band brightness divided by average of positive controls; above 1 enhancer, below 1 inhibitor; BODIPY FL C5-Sphingomyelin substrate, 30 minutes, 25° C., PBS pH=7.4
T1 construct: purchased Sigma Chemical, St. Louis, Mo; S7651
Experimental: Agents, such as botanical extracts and related compounds, for example, are tested for their ability to increase the activity of sphingomyelinase in a sphingomyelinase/sphingomyelin-containing system. An increase in the activity of sphingomyelinase results in an increase in the hydrolysis of sphingomyelin and an increased production of ceramide. The Sphingomyelinase Activity Screening Test to determine the efficacy of an agent is completed as follows:
Step 1: Preparation of Testing Solution Comprising Sphingomyelinase, Sphingomyelin, and Agent: Combine the following to prepare a 100 microliter test solution: (1) 10 microliters of agent (such as a botanical extract, for example) where the agent is an aqueous solution or oil (if the agent is a powder or solid, prepare 10 microliters of a 0.1 microgram/milliliter solution by dissolving the appropriate amount of powder or solid in Phosphate Buffered Saline, pH=7.4); (2) 10 microliters of a 0.1 microgram/milliliter sphingomyelinase (Catalogue No. S7651, Sigma Chemical, St. Louis, Mo. (or equivalent)) in Phosphate Buffered Saline, pH=7.4, solution; (3) 10 microliters of a 250 microgram/milliliter BODIPY FL C5-Sphingomyelin (Molecular Probes, Eugene, Oreg. (or equivalent)) in Phosphate Buffered Saline, pH=7.4, solution; and (4) 70 microliters of Phosphate Buffered Saline, pH=7.4.
Step 2: Preparation of Control Testing Solution Comprising Sphingomyelinase and Sphingomyelin: Combine the following to prepare a 100 microliter test solution: (1) 10 microliters of a 0.1 microgram/milliliter sphingomyelinase in Phosphate Buffered Saline, pH=7.4, solution; (2) 10 microliters of a 250 microgram/milliliter BODIPY FL C5-Sphingomyelin in Phosphate Buffered Saline, pH=7.4, solution; and (3) 80 microliters of Phosphate Buffered Saline, pH=7.4. […]

[1] = system: ceramidase (infant fecal extract); test: CAST Ceramidase Activity Screening Test; assay type: biochemical; conditions: relative to positive control, above 1 enhancer, below 1 inhibitor, C5 ceramide substrate, 18 hours, 25° C., PBS pH=7.4
Experimental: Agents, such as botanical extracts and related compounds, for example, are tested for their ability to decrease the activity of ceramidase in a ceramidase/ceramide system. A decrease in the activity of ceramidase results in an increase in the level of ceramides. The Ceramidase Activity Screening Test is completed as follows:
Step 1: Preparation of Testing Solution Comprising Ceramidase (Fecal Extract), Agent, and Ceramide: Combine the following to prepare a 100 microliter test solution: (1) 10 microliters of agent where the agent is an aqueous solution or oil (if the agent is a powder solid, prepare 10 microliters of a 0.1 microgram/milliliter solution by dissolving the appropriate amount of powder or solid in Phosphate Buffered Saline, pH=7.4); (2) 10 microliters of infant fecal extract in Phosphate Buffered Saline, pH=7.4 prepared by extracting 1 gram of infant feces in 9 mL of Phosphate Buffered Saline, pH=7.4, and vortexing the extraction for about 2 minutes followed by centrifugation to remove any solids; (3) 10 microliters of 250 microgram/milliliter C5 ceramide in Phosphate Buffered Saline, pH=7.4; and (4) 70 microliters of Phosphate Buffered Saline, pH=7.4.
Step 2: Preparation of Control Testing Solution Comprising Ceramidase and Ceramide: Combine the following to prepare a 100 microliter test solution: (1) 10 microliters of infant fecal extract in Phosphate Buffered Saline, pH=7.4; (2) 10 microliters of 250 microgram/milliliter BIODIPY FL C5 ceramide (Molecular Probes, Eugene, Wash.) in Phosphate Buffered Saline, pH=7.4; and (3) 80 microliters of Phosphate Buffered Saline, pH=7.4. […]
Step 3: Illuminate each plate with a 364 nanometer light source and take pictures with a suitable camera, such as a digital Kodak DC 40. The digital image is transferred as a TIFF file to the Alpha Innotech Flourchem Plate Imaging System and analyzed as described above with similar positive (substrate and ceramidase) and negative (substrate and no enzyme) controls. […]

T1 sequence (P11889 28-333): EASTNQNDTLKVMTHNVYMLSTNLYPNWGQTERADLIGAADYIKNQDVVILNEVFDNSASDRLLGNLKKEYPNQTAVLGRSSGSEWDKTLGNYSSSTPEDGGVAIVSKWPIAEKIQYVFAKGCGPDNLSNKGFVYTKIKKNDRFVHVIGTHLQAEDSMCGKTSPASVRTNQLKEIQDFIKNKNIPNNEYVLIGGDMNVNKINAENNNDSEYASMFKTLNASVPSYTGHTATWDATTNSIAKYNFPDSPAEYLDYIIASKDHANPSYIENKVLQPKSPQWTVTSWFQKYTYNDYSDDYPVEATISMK

Compound	Effect on Sphingomyelinase Activity (sphingomyelinase)	Effect on Ceramidase Activity [1]
CC(=O)Oc1c(C)c(C)c2c(c1C)CC[C@@](C)(CCC[C@H](C)CCC[C@H](C)CCCC(C)C)O2 [D1-alpha-Tocophenyl Acetate]	0.6 Times Activity	≧1 Times Activity
Potassium Laureth Phosphate	0.1 Times Activity	No Effect
Sunflower Seedaminopropyl Morpholine Lactate	0.1 Times Activity	No Effect
